{"source": "patent US6159940A", "about": "“Method for modulating hemopoiesis” (Immunotech Developments Inc., priority 1999, dated 2000)", "key": {"nucleated blood cells": {"test_system": "nucleated blood cells", "assay": "Karyocyte and lymphocyte counts in blood of irradiated mice (4 Gy), scheme 2", "format": "in vivo", "description": "Irradiated mice (4 Gy) received intramuscular injections of the peptide in the dose of 10 μg/kg according to 2 schemes.\nb) According to scheme 2, the peptide injections were made starting from the 3rd day after the irradiation, at the same time of maximum depletion of the pool of mature nucleated cells and the bone marrow. The groups of mice were formed in the same way as in the previous scheme. […] Tables 9 and 10 present the data on karyocyte and lymphocyte counts in blood (per 1 mm^3) of mice treated according to scheme 2."}, "Acute toxicity in mice": {"assay": "Acute toxicity in mice", "format": "in vivo", "description": "An acute toxicity study of the peptide was carried out in compliance with methodical recommendations of the Pharmacological Committee of the Russian Federation (RF), \"Requirements to Preclinical Study of General Toxic Action of New Pharmacological Substances\", M., 1985.\nTo establish the safety of use of the peptides, toxicity tests were performed. Toxicity tests where performed in accordance Pharmacological Committee Russian Federation (RF) \"guidelines for the pre-clinical study of general toxic activity of new pharmacological compounds\". M., 1985.\nAcute toxicity was studied in 120 mice (60 males, 60 females). Ld50 was not reached with the dose 10000 times as high as the therapeutic one. The preferred therapeutic dose is 0.001-0.1 mg/kg."}, "Antibody Forming Cells": {"test_system": "Antibody Forming Cells", "assay": "Antibody Forming Cells count (Jerne) in spleen after immunization with sheep erythrocytes", "format": "in vivo, (CBA×C57BL)F1 mice", "description": "Females and male (CBA×C57BL)F1 mice, aged about 2.5 months weighing about 20 g, were irradiated with gamma-rays using a \"Luch-1\" apparatus. Immunological activity was assessed according to Jerne (Antibody Forming Cells count--AFC). T-cell count in spleen was determined by the method of spontaneous rosette formation with sheep erythrocytes (E-FRC). The peptide was injected intramuscularly.\nMice were irradiated in a dose of 2 Gy, the peptide was injected in the dose of 10 μg/kg according to the following scheme (to determine T-cell count by the method of spontaneous rosette formation): 1 time--an hour after the irradiation; 2 times--an hour, and a day after irradiation; 3 times--an hour, a day, and two days after the irradiation; 4 times--an hour, a day, two days and three days after the irradiation. The intact mice recieved the peptide 3 or 4 times. The control group (2 Gy) recieved injections of physiological solution according to the same schedule. On completion of the treatment course, 10 mice from each group were immunized with sheep erythrocytes (SE) and 4-5 days later AFC counts were determined in their spleens. The rest of the mice were used to find T-cell count by the method of spontaneous rosette formation. The state of the organs of immune system (spleen and thymus) in mice with radiation immunodeficiency against the background of H-Ile-Glu-Trp-OH treatment was also listed by nucleated cell counts in thymus and spleen per mg of organ weight. AFC/mg Spleen weight is presented as an average of two experiments."}}}
{"substance": "H-Ile-Glu-Trp-OH", "values": [{"measurement": "Karyocyte Count in Blood", "setting": "nucleated blood cells; scheme 2, 1 Time, Day 7", "value": "1.64 ± 0.2 × 10^3"}, {"measurement": "Lymphocyte in Blood (Absolute)", "setting": "nucleated blood cells; scheme 2, 1 Time, Day 7", "value": 232}, {"measurement": "Lymphocyte in Blood, %", "setting": "nucleated blood cells; scheme 2, 1 Time, Day 7", "value": "45.1 ± 3.9", "unit": "%"}, {"measurement": "Karyocyte Count in Blood", "setting": "nucleated blood cells; scheme 2, 1 Time, Day 11", "value": "1.88 ± 0.3 × 10^3"}, {"measurement": "Lymphocyte in Blood (Absolute)", "setting": "nucleated blood cells; scheme 2, 1 Time, Day 11", "value": 1365}, {"measurement": "Lymphocyte in Blood, %", "setting": "nucleated blood cells; scheme 2, 1 Time, Day 11", "value": "49.2 ± 3.8", "unit": "%"}, {"measurement": "Karyocyte Count in Blood", "setting": "nucleated blood cells; scheme 2, 1 Time, Day 14", "value": "1.50 ± 0.2 × 10^3"}, {"measurement": "Lymphocyte in Blood (Absolute)", "setting": "nucleated blood cells; scheme 2, 1 Time, Day 14", "value": 1118}, {"measurement": "Lymphocyte in Blood, %", "setting": "nucleated blood cells; scheme 2, 1 Time, Day 14", "value": "43.3 ± 3.2", "unit": "%"}, {"measurement": "Karyocyte Count in Blood", "setting": "nucleated blood cells; scheme 2, 1 Time, Day 18", "value": "2.62 ± 0.2 × 10^3"}, {"measurement": "Lymphocyte in Blood (Absolute)", "setting": "nucleated blood cells; scheme 2, 1 Time, Day 18", "value": 2412}, {"measurement": "Lymphocyte in Blood, %", "setting": "nucleated blood cells; scheme 2, 1 Time, Day 18", "value": "30.6 ± 2.9", "unit": "%"}, {"measurement": "Karyocyte Count in Blood", "setting": "nucleated blood cells; scheme 2, 1 Time, Day 21", "value": "1.63 ± 0.2 × 10^3"}, {"measurement": "Lymphocyte in Blood (Absolute)", "setting": "nucleated blood cells; scheme 2, 1 Time, Day 21", "value": 743}, {"measurement": "Lymphocyte in Blood, %", "setting": "nucleated blood cells; scheme 2, 1 Time, Day 21", "value": "45.6 ± 3.9", "unit": "%"}, {"measurement": "Karyocyte Count in Blood", "setting": "nucleated blood cells; scheme 2, 2 Times, Day 7", "value": "1.33 ± 0.2 × 10^3"}, {"measurement": "Lymphocyte in Blood (Absolute)", "setting": "nucleated blood cells; scheme 2, 2 Times, Day 7", "value": 701}, {"measurement": "Lymphocyte in Blood, %", "setting": "nucleated blood cells; scheme 2, 2 Times, Day 7", "value": "52.7 ± 2.9", "unit": "%"}, {"measurement": "Karyocyte Count in Blood", "setting": "nucleated blood cells; scheme 2, 2 Times, Day 11", "value": "2.03 ± 0.3 × 10^3"}, {"measurement": "Lymphocyte in Blood (Absolute)", "setting": "nucleated blood cells; scheme 2, 2 Times, Day 11", "value": 915}, {"measurement": "Lymphocyte in Blood, %", "setting": "nucleated blood cells; scheme 2, 2 Times, Day 11", "value": "45.1 ± 5.4", "unit": "%"}, {"measurement": "Karyocyte Count in Blood", "setting": "nucleated blood cells; scheme 2, 2 Times, Day 14", "value": "1.60 ± 0.2 × 10^3"}, {"measurement": "Lymphocyte in Blood (Absolute)", "setting": "nucleated blood cells; scheme 2, 2 Times, Day 14", "value": 619}, {"measurement": "Lymphocyte in Blood, %", "setting": "nucleated blood cells; scheme 2, 2 Times, Day 14", "value": "38.8 ± 2.2", "unit": "%"}, {"measurement": "Karyocyte Count in Blood", "setting": "nucleated blood cells; scheme 2, 2 Times, Day 18", "value": "1.67 ± 0.1 × 10^3"}, {"measurement": "Lymphocyte in Blood (Absolute)", "setting": "nucleated blood cells; scheme 2, 2 Times, Day 18", "value": 703}, {"measurement": "Lymphocyte in Blood, %", "setting": "nucleated blood cells; scheme 2, 2 Times, Day 18", "value": "42.1 ± 1.4", "unit": "%"}, {"measurement": "Karyocyte Count in Blood", "setting": "nucleated blood cells; scheme 2, 2 Times, Day 21", "value": "2.70 ± 0.2 × 10^3"}, {"measurement": "Lymphocyte in Blood (Absolute)", "setting": "nucleated blood cells; scheme 2, 2 Times, Day 21", "value": 1220}, {"measurement": "Lymphocyte in Blood, %", "setting": "nucleated blood cells; scheme 2, 2 Times, Day 21", "value": "45.2 ± 2.3", "unit": "%"}, {"measurement": "Karyocyte Count in Blood", "setting": "nucleated blood cells; scheme 2, 3 Times, Day 7", "value": "2.22 ± 0.3 × 10^3"}, {"measurement": "Lymphocyte in Blood (Absolute)", "setting": "nucleated blood cells; scheme 2, 3 Times, Day 7", "value": 968}, {"measurement": "Lymphocyte in Blood, %", "setting": "nucleated blood cells; scheme 2, 3 Times, Day 7", "value": "43.6 ± 2.1", "unit": "%"}, {"measurement": "Karyocyte Count in Blood", "setting": "nucleated blood cells; scheme 2, 3 Times, Day 11", "value": "1.94 ± 0.2 × 10^3"}, {"measurement": "Lymphocyte in Blood (Absolute)", "setting": "nucleated blood cells; scheme 2, 3 Times, Day 11", "value": 892}, {"measurement": "Lymphocyte in Blood, %", "setting": "nucleated blood cells; scheme 2, 3 Times, Day 11", "value": "46.3 ± 5.4", "unit": "%"}, {"measurement": "Karyocyte Count in Blood", "setting": "nucleated blood cells; scheme 2, 3 Times, Day 14", "value": "1.50 ± 0.2 × 10^3"}, {"measurement": "Lymphocyte in Blood (Absolute)", "setting": "nucleated blood cells; scheme 2, 3 Times, Day 14", "value": 744}, {"measurement": "Lymphocyte in Blood, %", "setting": "nucleated blood cells; scheme 2, 3 Times, Day 14", "value": "47.7 ± 6.1", "unit": "%"}, {"measurement": "Karyocyte Count in Blood", "setting": "nucleated blood cells; scheme 2, 3 Times, Day 18", "value": "2.07 ± 0.2 × 10^3"}, {"measurement": "Lymphocyte in Blood (Absolute)", "setting": "nucleated blood cells; scheme 2, 3 Times, Day 18", "value": 7353}, {"measurement": "Lymphocyte in Blood, %", "setting": "nucleated blood cells; scheme 2, 3 Times, Day 18", "value": "35.5 ± 1.4", "unit": "%"}, {"measurement": "Karyocyte Count in Blood", "setting": "nucleated blood cells; scheme 2, 3 Times, Day 21", "value": "2.45 ± 0.4 × 10^3"}, {"measurement": "Lymphocyte in Blood (Absolute)", "setting": "nucleated blood cells; scheme 2, 3 Times, Day 21", "value": 1289}, {"measurement": "Lymphocyte in Blood, %", "setting": "nucleated blood cells; scheme 2, 3 Times, Day 21", "value": "52.5 ± 3.2", "unit": "%"}, {"measurement": "Karyocyte Count in Blood", "setting": "nucleated blood cells; scheme 2, 4 Times, Day 7", "value": "2.71 ± 0.4 × 10^3"}, {"measurement": "Lymphocyte in Blood (Absolute)", "setting": "nucleated blood cells; scheme 2, 4 Times, Day 7", "value": 1231}, {"measurement": "Lymphocyte in Blood, %", "setting": "nucleated blood cells; scheme 2, 4 Times, Day 7", "value": "45.6 ± 2.5", "unit": "%"}, {"measurement": "Karyocyte Count in Blood", "setting": "nucleated blood cells; scheme 2, 4 Times, Day 11", "value": "3.03 ± 0.5 × 10^3"}, {"measurement": "Lymphocyte in Blood (Absolute)", "setting": "nucleated blood cells; scheme 2, 4 Times, Day 11", "value": 1406}, {"measurement": "Lymphocyte in Blood, %", "setting": "nucleated blood cells; scheme 2, 4 Times, Day 11", "value": "42.6 ± 3.6", "unit": "%"}, {"measurement": "Karyocyte Count in Blood", "setting": "nucleated blood cells; scheme 2, 4 Times, Day 14", "value": "1.17 ± 0.1 × 10^3"}, {"measurement": "Lymphocyte in Blood (Absolute)", "setting": "nucleated blood cells; scheme 2, 4 Times, Day 14", "value": 515}, {"measurement": "Lymphocyte in Blood, %", "setting": "nucleated blood cells; scheme 2, 4 Times, Day 14", "value": "44.0 ± 3.1", "unit": "%"}, {"measurement": "Karyocyte Count in Blood", "setting": "nucleated blood cells; scheme 2, 4 Times, Day 18", "value": "2.48 ± 0.1 × 10^3"}, {"measurement": "Lymphocyte in Blood (Absolute)", "setting": "nucleated blood cells; scheme 2, 4 Times, Day 18", "value": 1116}, {"measurement": "Lymphocyte in Blood, %", "setting": "nucleated blood cells; scheme 2, 4 Times, Day 18", "value": "45.1 ± 1.8", "unit": "%"}, {"measurement": "Karyocyte Count in Blood", "setting": "nucleated blood cells; scheme 2, 4 Times, Day 21", "value": "1.66 ± 0.2 × 10^3"}, {"measurement": "Lymphocyte in Blood (Absolute)", "setting": "nucleated blood cells; scheme 2, 4 Times, Day 21", "value": 789}, {"measurement": "Lymphocyte in Blood, %", "setting": "nucleated blood cells; scheme 2, 4 Times, Day 21", "value": "47.5 ± 5.3", "unit": "%"}, {"measurement": "Ld50", "setting": "Acute toxicity in mice; 120 mice", "value": "> 10000 times as high as the therapeutic one"}, {"measurement": "acute toxic effect", "setting": "Acute toxicity in mice; intraperitoneal injection of a 10,000-fold dose", "value": "did not cause an acute toxic effect"}, {"measurement": "AFC/mg Spleen", "setting": "Antibody Forming Cells; 2 Gy, 10 μg/kg i.m., 3 Injection", "value": "152.4 ± 4.1"}, {"measurement": "AFC/mg Spleen", "setting": "Antibody Forming Cells; 2 Gy, 10 μg/kg i.m., 4 Injection", "value": "158.1 ± 7.1"}, {"measurement": "AFC/mg Spleen", "setting": "Antibody Forming Cells; intact mice, 3 Injections", "value": "621.1 ± 14.2"}, {"measurement": "AFC/mg Spleen", "setting": "Antibody Forming Cells; intact mice, 4 Injections", "value": "676.1 ± 47.5"}, {"measurement": "AFC increase", "setting": "Antibody Forming Cells; intact mice, humoral response to SE", "value": 5, "unit": "times"}, {"measurement": "number of antibody forming cells", "setting": "Antibody Forming Cells; irradiated mice, 3 and 4 injections", "value": "practically doubled"}]}
